Reference: paper PMC6273584, “Synthesis of Thiazolo[5,4-f]quinazolin-9(8H)-ones as Multi-Target Directed Ligands of Ser/Thr Kinases” (Molecules, 2016)
Where two headings read alike, the source gives them in different places.

Key:
[1] = target: T1, CDK5/p25 (Homo sapiens, UniProt Q00535); assay: In vitro kinase assay CDK5/p25, [γ-33P]ATP, histone H1 substrate; assay type: biochemical
T1 construct: made in house
Protocol: (§1) It was also tested as positive control and its IC50 values were compared to those obtained for the compounds under study.
(§2) Buffer A: MgCl2 (10 mM), 1 mM ethylene glycol-bis(2-aminoethylether)-N,N,N’,N’- tetraacetic acid (EGTA), 1 mM dithiothreitol (DTT), 25 mM Tris-HCl pH 7.5, 50 μg heparin/mL. Buffer B: β-Glycerophosphate (60 mM), 30 mM p-nitrophenylphosphate, 25 mM 3-(N-morpholino) propanesulfonic acid (Mops) (pH 7.2), 5 mM EGTA, 15 mM MgCl2, 1 mM DTT, 0.1 mM sodium vanadate.
(§3) Blank values were substracted and activities expressed in % of the maximal activity, i.e., in the absence of inhibitors. Controls were performed with appropriate dilutions of dimethylsulfoxide (DMSO). IC50 values were calculated from dose-response curves established by Sigma-Plot graphs. The GSK-3, CK1, DYRK1A and CLK1 peptide substrates were obtained from Proteogenix (Oberhausbergen, France).
(§4) CDK5/p25. (Human, recombinant) was prepared as previously described. […] ATP (3000 Ci/mmol; 10 mCi/mL) in a final volume of 30 μL. After 30 min incubation at 30 °C, 25 μL aliquots of supernatant were spotted onto sheets of P81 phosphocellulose paper (Whatman) and 20 s later, the filters were washed eight times (for at least 5 min each time) in a solution of 10 mL phosphoric acid/L of water. The wet filters were counted in the presence of 1 mL ACS (Amersham, UK) scintillation fluid.

[2] = target: CK1δ/ε; assay: In vitro kinase assay CK1δ/ε, CK1-specific peptide substrate; assay type: biochemical, Porcine; settings: 15 μM ATP, 30 min, 30 °C, triplicate; <50% inhibition at 10 μM = IC50 >10 μM
Protocol: as §1, §2, §3, §4
CK1δ/ε. (Porcine brain, native) was assayed as described for CDK5/p25 but using the CK1-specific peptide substrate […]pSAYSITA [37].

[3] = target: T2, DYRK1A (Rattus norvegicus, UniProt Q63470); assay: In vitro kinase assay DYRK1A, Woodtide substrate; assay type: biochemical
Protocol: as §1, §2, §3, §4

[4] = target: GSK-3α/β; assay: In vitro kinase assay GSK-3α/β, GS-1 peptide substrate; assay type: biochemical, Porcine
Protocol: as §1, §2, §3, §4
GSK-3α/β. (Porcine brain, native) was assayed, as described for CDK5/p25 but in buffer A and using a GSK-3 specific substrate (GS-1: […]pSEDEEE) (pS stands for phosphorylated serine).

[5] = target: T3, CLK1 (Homo sapiens, UniProt P49759); settings: read-out: CLK1 IC50, 15 μM ATP, 30 min, 30 °C, triplicate
T3 sequence (P49759 whole entry): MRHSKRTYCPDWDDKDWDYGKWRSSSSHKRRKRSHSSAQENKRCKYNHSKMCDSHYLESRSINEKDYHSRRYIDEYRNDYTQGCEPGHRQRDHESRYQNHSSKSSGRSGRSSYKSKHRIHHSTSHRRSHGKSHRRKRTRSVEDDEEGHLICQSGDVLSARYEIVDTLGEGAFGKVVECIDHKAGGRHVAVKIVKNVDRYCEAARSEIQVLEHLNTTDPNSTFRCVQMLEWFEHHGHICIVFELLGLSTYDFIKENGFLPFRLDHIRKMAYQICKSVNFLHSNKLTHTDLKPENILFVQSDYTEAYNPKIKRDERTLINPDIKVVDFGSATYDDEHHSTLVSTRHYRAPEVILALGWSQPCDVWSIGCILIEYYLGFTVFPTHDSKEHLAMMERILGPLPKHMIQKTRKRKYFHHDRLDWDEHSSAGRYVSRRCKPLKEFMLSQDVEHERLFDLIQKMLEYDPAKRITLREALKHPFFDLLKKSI

[6] = target: T3, CLK1; assay: biochemical
[7] = target: T2, DYRK1A; assay: DYRK1A inhibition of earlier compounds I and II (Figure 2); assay type: biochemical; settings: list of targeted kinases extended for earlier compounds
[8] = test system: CDK1; design: method as in PMID 17981370, PMID 16644220; settings: Figure 2; earlier work; cited from earlier work
[9] = 15 μM ATP, 30 min, 30 °C, triplicate, <50% inhibition at 10 μM = IC50 >10 μM
[10] = 15 μM ATP, 30 min, 30 °C, triplicate, <50% inhibition at 10 μM = IC50 >10 μM, read-out: DYRK1A IC50

T1 sequence (Q00535 whole entry): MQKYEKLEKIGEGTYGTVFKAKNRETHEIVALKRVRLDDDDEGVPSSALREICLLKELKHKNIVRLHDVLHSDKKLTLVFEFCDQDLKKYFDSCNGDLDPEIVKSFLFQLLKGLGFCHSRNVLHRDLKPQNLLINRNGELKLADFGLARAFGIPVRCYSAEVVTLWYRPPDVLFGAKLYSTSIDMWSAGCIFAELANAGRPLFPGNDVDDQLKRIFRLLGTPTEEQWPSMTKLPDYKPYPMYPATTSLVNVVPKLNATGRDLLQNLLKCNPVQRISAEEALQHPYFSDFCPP
T1 sequence (Q15078 99-307 partner limits assumed): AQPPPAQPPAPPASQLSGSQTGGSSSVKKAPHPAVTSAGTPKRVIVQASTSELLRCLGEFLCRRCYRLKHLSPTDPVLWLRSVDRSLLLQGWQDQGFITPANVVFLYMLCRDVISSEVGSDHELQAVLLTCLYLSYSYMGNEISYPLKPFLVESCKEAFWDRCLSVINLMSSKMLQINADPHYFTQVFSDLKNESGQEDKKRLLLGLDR

Work on `COCCn1cnc2ccc3nc(C(=N)OC)sc3c2c1=O` [Compound 12b, Methyl 8-(2-methoxyethyl)-9-oxo-8,9-dihydrothiazolo[5,4-f]quinazoline-2-carbimidate] yielded an IC50 [1, 9] greater than 10000 nM, an IC50 [2] greater than 10000 nM and an IC50 [3, 10] of 390 nM. It also gave an IC50 [4] of 1200 nM and an IC50 [5] of 510 nM.
Work on `COC(=N)c1nc2ccc3ncn(CCN(C)C)c(=O)c3c2s1` [Compound 12i, Methyl 8-[(3-dimethylamino)ethyl]-9-oxo-8,9-dihydrothiazolo[5,4-f]quinazoline-2-carbimidate] yielded an IC50 [1, 9] greater than 10000 nM, an IC50 [2] greater than 10000 nM and an IC50 [3, 10] of 1000 nM. For the same compound, the IC50 [4] was 1800 nM and the IC50 [5] was 1800 nM.
Work on `CC(C)n1cnc2ccc3nc(C(=N)OCc4ccccc4)sc3c2c1=O` [Compound 13d, Benzyl 8-isopropyl-9-oxo-8,9-dihydro[1, 3]thiazolo[5,4-f]quinazoline-2-carbimidate] yielded an IC50 [1, 9] greater than 10000 nM, an IC50 [2] greater than 10000 nM and an IC50 [4] of 57 nM. For the same compound, the IC50 [5] was 270 nM.
Compound `CCOC(=N)c1nc2ccc3ncn(C4CCCC4)c(=O)c3c2s1` [Compound 14e, Ethyl 8-cyclopentyl-9-oxo-8,9-dihydrothiazolo[5,4-f]quinazoline-2-carbimidate] has an IC50 [1] greater than 10000 nM, an IC50 [2] greater than 10000 nM and an IC50 [3] of 230 nM. It also gave an IC50 [4] of 29 nM and an IC50 [6] of 780 nM.
`CC(C)OC(=N)c1nc2ccc3ncn(C4CC4)c(=O)c3c2s1` [Compound 15a, Isopropyl 8-cyclopropyl-9-oxo-8,9-dihydrothiazolo[5,4-f]quinazoline-2-carbimidate] gave an IC50 [1] greater than 10000 nM, an IC50 [2] greater than 10000 nM and an IC50 [3] of 420 nM. The IC50 [4] was 420 nM and the IC50 [6] was 43 nM.
With `COCCn1cnc2ccc3nc(C(=N)OC(C)C)sc3c2c1=O` [Compound 15b, Isopropyl 8-(2-methoxyethyl)-9-oxo-8,9-dihydro[1, 3]thiazolo[5,4-f]quinazoline-2-carboximidate] the IC50 [1, 9] was greater than 10000 nM, the IC50 [2] was greater than 10000 nM and the IC50 [3, 10] was 3900 nM. It also gave an IC50 [4] of 2500 nM and an IC50 [5] of 2100 nM.
In the case of `COCCCn1cnc2ccc3nc(C(=N)OC(C)C)sc3c2c1=O` [Compound 15c, Isopropyl 8-(3-methoxypropyl)-9-oxo-8,9-dihydro[1, 3]thiazolo[5,4-f]quinazoline-2-carboximidate], the IC50 [1, 9] is reported as greater than 10000 nM, the IC50 [2] is reported as greater than 10000 nM and the IC50 [3, 10] is reported as 950 nM. For the same compound, the IC50 [4] was 270 nM and the IC50 [5] was 1200 nM.
In the case of `CCn1cnc2ccc3nc(C(=N)OCc4ccccc4)sc3c2c1=O` [II], the “DYRK1A IC50” value [7] is listed as “micromolar”, the IC50 [7] is listed as 1500 nM and the “CDK1 IC50” value [8] is listed as “micromolar range”. The IC50 [8] was 1300 nM.
